The structures appear in SMILES notation. Where two headings read alike, the source gives them in different places.

Series [1] concerns SW-620 colorectal cancer cell line. Description: MTT cell viability assay, SW-620 colorectal cancer cells. The series is classed as cell-based, human. How it is done:
(§1) HT29 and SW620 colorectal cancer cell lines and HFF-1 fibroblast (ATCC, Rockville, USA) were used. HT29 cells were cultured and maintained in Dulbecco’s Modified Eagle’s Medium (DMEM) (GIBCO, by Thermo Fischer Scientific, NY, USA) supplemented with 10% foetal bovine serum (FBS), 100 units/mL penicillin, and 100 µg streptomycin. SW620 and HFF-1 cells were cultured in Roswell Park Memorial Institute medium (RPMI-1640) (GIBCO, by Thermo scientific, NY, USA) supplemented with 10% FBS and 1% penicillin and streptomycin (Napolitano et al., 2015). All cultures were incubated at 37 °C and humidified atmosphere of 5% CO2.
(§2) The cytotoxicity effect of compounds on the colorectal cancer cell lines, HT29 and SW620 in addition to the normal human fibroblasts was measured by MTT (3–(4, 5-dimethylthiazol-2-yl)-2,5-diphenyltetrazolium bromide) (Sigma-Aldrich, St. Louis, MO, USA) as previously described. Briefly, cells were seeded in 96 well culture plates at 5000/well for HT29 and 10,000/well for SW620 for 24 h. Cells were then incubated with different compounds from WAG1 series (1–15) 24 h at 37 °C and humidified 5% CO2 incubator. Freshly prepared 10 µl of 3–(4,5-dimethylthiazol-2-yl)-2,5-diphenyltetrazolium bromide (MTT 5 mM) solution were added to the cells and further incubated for 2 h. Thereafter, 100 µl of dimethyl sulphoxide (DMSO) were added in each well and the crystals were dissolved through careful pipetting. In certain experiment, cells were treated different concentration of 5FU for 72 h. The absorbance of the product was measured at 540 nm using a Synergy™ 2 multi-mode microplate reader (Biotech, VA, USA). The experiments were performed in triplicate for each condition.
Background: Formazan colour is commonly taken as a measure of viable cells.

In series [2] the test system is HT-29 colorectal cancer cell line. Description: MTT cell viability assay, HT-29 colorectal cancer cells. The series is classed as cell-based, human. How it is done:
as §1, §2

The subject of a further series is BclxL. The series can be described thus: Western blot of BclxL protein expression in SW-620 cells. Type of series: cell-based, human. The note with it: SW-620, two concentrations, 24 h, immunoblotting. How it is done:
(§3) All cells were seeded in a 100 mm dish (1 × 10^6 cells per dish) in 5% CO2 at 37 °C in the appropriate culture medium. The cells with around 50% confluency were treated with compounds for 24 h. At the experiment day, cells were washed with 1x PBS, harvested and lysed in RIPA lysis buffer, combined with protease inhibitors, (Sigma-Aldrich, St. Louis, MO, USA) as described previously[39]). The total protein concentration was evaluated by the colorimetric Bradford protein assay (BIO-RAD inc, CA, USA) at 595 nm absorbance. Lysates were loaded in equal concentration and separated by sodium dodecyl sulfate-polyacrylamide gel electrophoresis (SDS-PAGE) and then transferred to a nitrocellulose membrane by semi-dry. Blocking of the membrane was done by 5% non-fat dried milk for one hour, incubated with the primary antibodies. The primary antibodies used were Bcl2 (cat. no. sc-7382), BclxL (cat. no. sc-8392) and β Actin (cat. no. sc-69879) from (Santa Cruz Biotechnology, Inc., Dallas, TX, USA). The secondary antibodies used were goat anti-mouse IgG-HRP (cat. no. sc-2005) and mouse anti-rabbit IgG-HRP (cat. no. sc-2357) from (Santa Cruz Biotechnology, Inc., Dallas, TX, USA). Detection was done with Luminol HRP chemiluminescence substrate (cat. no. sc-2048) from (Santa Cruz Biotechnology, Inc., Dallas, TX, USA) and then visualised by c-digit blot-scanner (LI-COR, Nebraska, USA).
(In general: In western blotting, separated proteins are transferred to a membrane and probed.)

For another series, the system named is Bcl2. Description: Western blot of Bcl2 protein expression in SW-620 cells. Type of series: cell-based, human. The note with it: SW-620, two concentrations, 24 h, immunoblotting. How it is done: as §3
A further series concerns SW-620 cells. Description: Annexin V-FITC/PI apoptosis assay (flow cytometry). The series is classed as cell-based, human. The note with it: 24 h. How it is done:
Induction of apoptosis was measured by Dead Cell Apoptosis Kit with Annexin V FITC and PI, for flow cytometry (Thermofischer scientific, OR, USA) according to the manufacturer’s instruction. As described previously (39), cells were seeded in a 6-well plate (3 × 10^5 cells per well) and treated with the various compound for 24 h. Both floating and adherent cells were harvested, pooled together, and incubated with Annexin V-FITC and PI for 15 min on ice in dark. The cells were analysed by BD FACSCalibur™ cell analyser (BD Biosciences, CA, USA) at an emission of 530 nm (FL1 channel) and >575 nm (FL3).
Background: Flow cytometry measures light scatter and fluorescence of single cells or particles in a stream.

Series [3] deals with normal human skin fibroblast (HFF-1). The series can be described thus: MTT cell viability assay, normal fibroblast HFF-1. The series is classed as cell-based. The settings on record: 24 h. How it is done: as §1
The cytotoxicity effect of compounds on the colorectal cancer cell lines, HT29 and SW620 in addition to the normal human fibroblasts was measured by MTT (3–(4, 5-dimethylthiazol-2-yl)-2,5-diphenyltetrazolium bromide) (Sigma-Aldrich, St. Louis, MO, USA) as previously described. Briefly, cells were seeded in 96 well culture plates at 5000/well for HT29 and 10,000/well for SW620 for 24 h. Cells were then incubated with different compounds from WAG1 series (1–15) 24 h at 37 °C and humidified 5% CO2 incubator. […] The absorbance of the product was measured at 540 nm using a Synergy™ 2 multi-mode microplate reader (Biotech, VA, USA). […]

Where [4] appears, read: Homo sapiens, SW-620, MTT, compounds 24 h (5FU 72 h), three separate experiments, read-out: IC50 (nM) SW-620.
Setting [5] is: Homo sapiens, HT-29, MTT, compounds 24 h (5FU 72 h), three separate experiments, read-out: IC50 (nM) HT-29.
The mark [6] stands for this setting: MTT, compounds 24 h (5FU 72 h), three separate experiments, read-out: IC50 (nM) SW-620.
Setting [7] is: MTT, compounds 24 h (5FU 72 h), three separate experiments, read-out: IC50 (nM) HT-29.

Molecule `CCCN1C(=O)C(=NNC(=O)c2c[nH]c3ccccc23)c2cc(Cl)ccc21` [Compound 9d, N'-(5-Chloro-2-oxo-1-propylindolin-3-ylidene)-1H-indole-3-carbohydrazide] displayed a melting point of 262 to 263 °C. Further, the IC50 in series [1] (setting [4]) is 290 nM. Moreover, the IC50 in series [2] (setting [5]) stood at 166 nM.

As for `Cc1ccc2c(c1)C(=NNC(=O)c1c[nH]c3ccccc13)C(=O)N2` [Compound 7e, N'-(5-Methyl-2-oxoindolin-3-ylidene)-1H-indole-3-carbohydrazide], the melting point was 201 to 203 °C. Moreover, in series [1] (setting [4]), the IC50 is 253 nM. Also, the IC50 in series [2] (setting [5]) was determined as 335 nM.

In turn, `O=C1Nc2ccccc2C1=NNC(=O)c1c[nH]c2ccccc12` [Compound 7a, N'-(2-Oxoindolin-3-ylidene)-1H-indole-3-carbohydrazide] displayed a melting point of 259 to 261 °C. The IC50 in series [1] (setting [4]) worked out at 145 nM. Further, in series [2] (setting [5]), the IC50 is 408 nM.

In the case of `O=C(NN=C1C(=O)N(Cc2ccccc2)c2ccccc21)c1c[nH]c2ccccc12` [Compound 9c, N'-(1-Benzyl-2-oxoindolin-3-ylidene)-1H-indole-3-carbohydrazide], the melting point is 274 to 276 °C. Further, the IC50 in series [1] (setting [4]) is 283 nM. Further, the IC50 in series [2] (setting [5]) was 405 nM.

`Cc1cc(C)c2c(c1)C(=NNC(=O)c1c[nH]c3ccccc13)C(=O)N2` [Compound 7j, N'-(5,7-Dimethyl-2-oxoindolin-3-ylidene)-1H-indole-3-carbohydrazide]: the melting point is more than 300 °C. The IC50 in series [1] (setting [4]) was determined as 187 nM. Further, the IC50 in series [2] (setting [5]) amounted to 200 nM.

The molecule `COc1ccc2c(c1)C(=NNC(=O)c1c[nH]c3ccccc13)C(=O)N2` [Compound 7f, N'-(5-Methoxy-2-oxoindolin-3-ylidene)-1H-indole-3-carbohydrazide] had a melting point of 197 to 199 °C. For the same molecule, the IC50 in series [1] (setting [4]) came out at 37 nM. In addition, in series [2] (setting [5]), the IC50 was 142 nM.

The molecule `O=C1Nc2ccc(F)cc2C1=NNC(=O)c1c[nH]c2ccccc12` [Compound 7b, N'-(5-Fluoro-2-oxoindolin-3-ylidene)-1H-indole-3-carbohydrazide] had a melting point of more than 300 °C. In series [1] (setting [4]), the IC50 amounted to 175 nM. Also, the IC50 in series [2] (setting [5]) was 611 nM.

As for `O=C1Nc2ccc(Cl)cc2C1=NNC(=O)c1c[nH]c2ccccc12` [Compound 7c, N'-(5-Chloro-2-oxoindolin-3-ylidene)-1H-indole-3-carbohydrazide], the IC50 in series [1] (setting [4]) came to 206 nM; in series [1] (setting [6]), 188 nM; in series [2] (setting [5]), 188 nM; in series [2] (setting [7]) it was 206 nM. Moreover, the BclxL protein expression entry in the series with BclxL is given as “dose-dependent inhibition”. Besides, the Bcl2 protein expression result in the series with Bcl2 is given as “dose-dependent inhibition”. Besides, the “fold total apoptosis increase compared to the control” value was “approximately 5.2 fold” with SW-620 cells (SW-620, 250 nM) and approximately 10.66 fold with SW-620 cells (SW-620, 500 nM). The “effect on cell viability of HFF-1” value in series [3] is given as “no/or little effect”.

`CCCN1C(=O)C(=NNC(=O)c2c[nH]c3ccccc23)c2cc(Br)ccc21` [Compound 9e, N'-(5-Bromo-2-oxo-1-propylindolin-3-ylidene)-1H-indole-3-carbohydrazide] yielded a melting point of 255 to 256 °C. Besides, the IC50 in series [1] (setting [4]) came to 414 nM. Moreover, the IC50 in series [2] (setting [5]) was 290 nM.

For `O=C1Nc2c(F)cccc2C1=NNC(=O)c1c[nH]c2ccccc12` [Compound 7i, N'-(7-Fluoro-2-oxoindolin-3-ylidene)-1H-indole-3-carbohydrazide], the melting point is more than 300 °C. Also, the IC50 in series [1] (setting [4]) was 468 nM. Besides, in series [2] (setting [5]), the IC50 amounted to 140 nM.

On to `O=C1Nc2ccc(OC(F)(F)F)cc2C1=NNC(=O)c1c[nH]c2ccccc12` [Compound 7g, N'-(2-Oxo-5-(trifluoromethoxy)indolin-3-ylidene)-1H-indole-3-carbohydrazide], for which the IC50 in series [1] (setting [4]) was determined as 299 nM; in series [1] (setting [6]), 279 nM; in series [2] (setting [5]) it was 279 nM; in series [2] (setting [7]), 299 nM. Besides, the BclxL protein expression result in the series on BclxL is reported as “inhibit”. Further, the Bcl2 protein expression entry with Bcl2 was “inhibit”. Besides, the “fold total apoptosis increase compared to the control” value with SW-620 cells (SW-620, 250 nM) is listed as “approximately 7.3 fold”; with SW-620 cells (SW-620, 500 nM) it was approximately 9.6 fold. Moreover, the “effect on cell viability of HFF-1” value in series [3] is given as “no/or little effect”.

On to `CN1C(=O)C(=NNC(=O)c2c[nH]c3ccccc23)c2ccccc21` [Compound 9a, N'-(1-Methyl-2-oxoindolin-3-ylidene)-1H-indole-3-carbohydrazide], for which the melting point was in the range of 273 to 275 °C. For the same molecule, in series [1] (setting [4]), the IC50 turned out to be 260 nM. For the same molecule, in series [2] (setting [5]), the IC50 came to 176 nM.

In the case of `O=C1Nc2ccc(Br)cc2C1=NNC(=O)c1c[nH]c2ccccc12` [Compound 7d, N'-(5-Bromo-2-oxoindolin-3-ylidene)-1H-indole-3-carbohydrazide], the melting point fell in the range of 247 to 249 °C. Moreover, the IC50 in series [1] (setting [4]) came to 133 nM. Besides, in series [2] (setting [5]), the IC50 was found to be 320 nM.

As for `O=c1[nH]cc(F)c(=O)[nH]1` [Compound 5-FU, 5-Fluorouracil, reference compound], the IC50 in series [1] (Homo sapiens, SW-620, 72 h, MTT, 5FU 72 h, read-out: IC50 against SW-620) was 4600 nM; in series [1] (setting [4]) it was 1500 nM; in series [2] (Homo sapiens, HT-29, 72 h, MTT, 5FU 72 h, read-out: IC50 against HT-29) it was 1500 nM; in series [2] (setting [5]) it was 4600 nM.

`O=C1Nc2ccc([N+](=O)[O-])cc2C1=NNC(=O)c1c[nH]c2ccccc12` [Compound 7h, N'-(5-Nitro-2-oxoindolin-3-ylidene)-1H-indole-3-carbohydrazide] had a melting point of more than 300 °C. Also, the IC50 in series [1] (setting [4]) was 190 nM. In addition, the IC50 in series [2] (setting [5]) was 132 nM. The “fold more active than 5FU against HT-29” value in series [2] (ratio of IC50 values versus 5FU) is on record as “approximately 35 fold”.

`CCCN1C(=O)C(=NNC(=O)c2c[nH]c3ccccc23)c2ccccc21` [Compound 9b, N'-(2-Oxo-1-propylindolin-3-ylidene)-1H-indole-3-carbohydrazide] gave a melting point of 248 to 250 °C. The IC50 in series [1] (setting [4]) came out at 105 nM. Also, the IC50 in series [2] (setting [5]) came out at 525 nM.

A word on the IC50: it is the midpoint of a concentration-inhibition curve. By melting point is commonly meant the temperature of the solid-liquid transition.

The values above are taken from article PMC7751403, “Development of 2-oindolin-3-ylidene-indole-3-carbohydrazide derivatives as novel apoptotic and anti-proliferative agents towards colorectal cancer cells” (Journal of Enzyme Inhibition and Medicinal Chemistry, 2020).
